12 molecules from US20220257775A1 (GLYCOMIMETICS, INC., priority 2019, published 2022) can be followed below.

As a reminder, the Kd is the equilibrium constant for the complex coming apart.

The target in the assay is T1, recombinant human E-selectin/CD63E Fc Chimera (Homo sapiens, UniProt P16581).
T1 construct: Fc (human IgG Fc fusion partner); purchased R & D systems
T1 sequence (P16581 with tags, fused parts or gaps limits assumed): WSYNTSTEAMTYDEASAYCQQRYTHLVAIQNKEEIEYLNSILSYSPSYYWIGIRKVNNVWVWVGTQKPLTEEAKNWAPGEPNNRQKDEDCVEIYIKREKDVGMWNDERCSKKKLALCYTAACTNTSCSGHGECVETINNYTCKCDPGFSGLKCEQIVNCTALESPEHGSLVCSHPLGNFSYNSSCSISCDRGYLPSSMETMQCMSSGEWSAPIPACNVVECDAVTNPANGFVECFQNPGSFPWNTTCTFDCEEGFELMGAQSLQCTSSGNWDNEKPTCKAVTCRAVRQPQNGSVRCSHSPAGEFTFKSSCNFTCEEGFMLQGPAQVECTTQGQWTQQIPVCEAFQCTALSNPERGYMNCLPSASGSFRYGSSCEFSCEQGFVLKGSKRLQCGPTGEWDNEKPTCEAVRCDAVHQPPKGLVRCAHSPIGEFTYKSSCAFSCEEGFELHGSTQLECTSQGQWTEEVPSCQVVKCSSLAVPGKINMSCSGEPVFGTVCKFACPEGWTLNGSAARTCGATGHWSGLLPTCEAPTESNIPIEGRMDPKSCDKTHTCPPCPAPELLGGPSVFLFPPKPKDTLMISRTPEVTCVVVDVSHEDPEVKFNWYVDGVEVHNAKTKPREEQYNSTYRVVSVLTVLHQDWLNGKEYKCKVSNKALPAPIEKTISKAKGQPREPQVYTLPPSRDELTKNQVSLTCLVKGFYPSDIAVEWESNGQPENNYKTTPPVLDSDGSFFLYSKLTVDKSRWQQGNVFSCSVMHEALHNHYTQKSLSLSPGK
Kind of assay: E-Selectin Activity - Analysis by SPR. Format: binding. The following applies: Biacore X100, E-selectin captured on anti-human IgG (Fc) chip. The protocol:
Surface Plasmon Resonance (SPR) measurements were performed on a Biacore X100 instrument (GE Healthcare). A CM5 sensor chip (GE Healthcare) was used for the interaction between E-selectin and GMI compound. Anti-human IgG (Fc) antibody (GE Healthcare) was immobilized onto the chip by amine coupling according to the manufacturer's instructions. In brief, after a 7-min injection (flow rate of 5 μl/min) of 1:1 mixture of N-ethyl-N′-(3-dimethylaminopropyl) carbodiimide hydrochloride and N-hydroxysuccinimide, anti-human IgG (Fc) antibody (25 μg/ml in 10 mM sodium acetate buffer, pH 5.0) was injected using a 6-min injection at 5 μl/min. Remaining activated groups were blocked by injecting 1 M ethanolamine/HCl, pH 8.5. The recombinant human E-selectin/CD63E Fc Chimera (50 μg/ml) (R & D systems) was injected into the experimental cell until 6000-7000 RU was captured onto the antibody surface. No recombinant human E-selectin/CD63E was injected into the control cell. Increasing concentrations of GMI compound samples were injected at 30 μl/min into both flow cells and all sensorgrams were recorded against the control. Regeneration of the anti-human IgG (Fc) surface was achieved by injecting 3M magnesium chloride, followed by 50 mM sodium hydroxide. Data were analyzed using Biacore X100 evaluation/BIA evaluation 4.1.1 software (GE Healthcare) and Graphad prism 6 software.
Background: SPR reads the build-up and loss of mass on a sensor chip optically.
As to `CC[C@H]1C[C@@H](C(=O)OC)C[C@@H](O[C@@H]2O[C@H](CO)[C@H](O)[C@H](O[C@@H](CC3CCCCC3)C(=O)O)[C@H]2NC(C)=O)[C@@H]1O[C@@H]1O[C@@H](C)[C@@H](O)[C@@H](O)[C@@H]1O` [Compound 3, reference compound], the Kd was 2260 nM.

With `CC[C@H]1C[C@@H](C(=O)NCCNC(=O)CCOCCOCCOCCOCCOCCOCCOCCOCCOCCOCCOCCOCCOCCOCCOCCOCCOCCC(=O)NCCNC(=O)[C@@H]2C[C@H](CC)[C@@H](O[C@@H]3O[C@@H](C)[C@@H](O)[C@@H](O)[C@@H]3O)[C@H](O[C@@H]3O[C@H](CO)[C@H](O)[C@H](O[C@@H](CC4CCCCC4)C(=O)O)[C@H]3NC(C)=O)C2)C[C@@H](O[C@@H]2O[C@H](CO)[C@H](O)[C@H](O[C@@H](CC3CCCCC3)C(=O)O)[C@H]2NC(C)=O)[C@@H]1O[C@@H]1O[C@@H](C)[C@@H](O)[C@@H](O)[C@@H]1O` [Compound 11], the Kd was 8.5 nM.

With `CC[C@H]1C[C@@H](C(=O)NCCNC(=O)CCOCCOCCOCCOCCOCCOCCOCCOCCOCCOCCOCCOCCOCCOCCOCCOCCOCCOCCOCCOCCOCCOCCOCCOCCOCCC(=O)NCCNC(=O)[C@@H]2C[C@H](CC)[C@@H](O[C@@H]3O[C@@H](C)[C@@H](O)[C@@H](O)[C@@H]3O)[C@H](O[C@@H]3O[C@H](CO)[C@H](O)[C@H](O[C@@H](CC4CCCCC4)C(=O)O)[C@H]3NC(C)=O)C2)C[C@@H](O[C@@H]2O[C@H](CO)[C@H](O)[C@H](O[C@@H](CC3CCCCC3)C(=O)O)[C@H]2NC(C)=O)[C@@H]1O[C@@H]1O[C@@H](C)[C@@H](O)[C@@H](O)[C@@H]1O` [Compound 12], the Kd was determined as 3.7 nM.

For `CC[C@H]1C[C@@H](C(=O)NCCNC(=O)CCOCCOCCOCCOCCOCCOCCOCCOCCOCCOCCOCCOCCOCCOCCOCCOCCOCCOCCOCCOCCOCCC(=O)NCCNC(=O)[C@@H]2C[C@H](CC)[C@@H](O[C@@H]3O[C@@H](C)[C@@H](O)[C@@H](O)[C@@H]3O)[C@H](O[C@@H]3O[C@H](CO)[C@H](O)[C@H](O[C@@H](CC4CCCCC4)C(=O)O)[C@H]3NC(C)=O)C2)C[C@@H](O[C@@H]2O[C@H](CO)[C@H](O)[C@H](O[C@@H](CC3CCCCC3)C(=O)O)[C@H]2NC(C)=O)[C@@H]1O[C@@H]1O[C@@H](C)[C@@H](O)[C@@H](O)[C@@H]1O` [Compound 13], the Kd stood at 4.7 nM.

For `CC[C@H]1C[C@@H](C(=O)NCCNC(=O)CCOCCOCCOCCOCCOCCOCCOCCOCCOCCOCCOCCOCCOCCC(=O)NCCNC(=O)[C@@H]2C[C@H](CC)[C@@H](O[C@@H]3O[C@@H](C)[C@@H](O)[C@@H](O)[C@@H]3O)[C@H](O[C@@H]3O[C@H](CO)[C@H](O)[C@H](O[C@@H](CC4CCCCC4)C(=O)O)[C@H]3NC(C)=O)C2)C[C@@H](O[C@@H]2O[C@H](CO)[C@H](O)[C@H](O[C@@H](CC3CCCCC3)C(=O)O)[C@H]2NC(C)=O)[C@@H]1O[C@@H]1O[C@@H](C)[C@@H](O)[C@@H](O)[C@@H]1O` [Compound 14], the Kd is 6.6 nM.

As to `CC[C@H]1C[C@@H](C(=O)NCCNC(=O)CCOCCOCCOCCOCCOCCOCCOCCOCCOCCOCCC(=O)NCCNC(=O)[C@@H]2C[C@H](CC)[C@@H](O[C@@H]3O[C@@H](C)[C@@H](O)[C@@H](O)[C@@H]3O)[C@H](O[C@@H]3O[C@H](CO)[C@H](O)[C@H](O[C@@H](CC4CCCCC4)C(=O)O)[C@H]3NC(C)=O)C2)C[C@@H](O[C@@H]2O[C@H](CO)[C@H](O)[C@H](O[C@@H](CC3CCCCC3)C(=O)O)[C@H]2NC(C)=O)[C@@H]1O[C@@H]1O[C@@H](C)[C@@H](O)[C@@H](O)[C@@H]1O` [Compound 15], the Kd came to 6 nM.

Take `CC[C@H]1C[C@@H](C(=O)NCCNC(=O)CCOCCOCCOCCOCCOCCOCCC(=O)NCCNC(=O)[C@@H]2C[C@H](CC)[C@@H](O[C@@H]3O[C@@H](C)[C@@H](O)[C@@H](O)[C@@H]3O)[C@H](O[C@@H]3O[C@H](CO)[C@H](O)[C@H](O[C@@H](CC4CCCCC4)C(=O)O)[C@H]3NC(C)=O)C2)C[C@@H](O[C@@H]2O[C@H](CO)[C@H](O)[C@H](O[C@@H](CC3CCCCC3)C(=O)O)[C@H]2NC(C)=O)[C@@H]1O[C@@H]1O[C@@H](C)[C@@H](O)[C@@H](O)[C@@H]1O` [Compound 16]: the Kd stood at 6 nM.

With `CC[C@H]1C[C@@H](C(=O)NCCNC(=O)CCOCCOCCOCCOCCC(=O)NCCNC(=O)[C@@H]2C[C@H](CC)[C@@H](O[C@@H]3O[C@@H](C)[C@@H](O)[C@@H](O)[C@@H]3O)[C@H](O[C@@H]3O[C@H](CO)[C@H](O)[C@H](O[C@@H](CC4CCCCC4)C(=O)O)[C@H]3NC(C)=O)C2)C[C@@H](O[C@@H]2O[C@H](CO)[C@H](O)[C@H](O[C@@H](CC3CCCCC3)C(=O)O)[C@H]2NC(C)=O)[C@@H]1O[C@@H]1O[C@@H](C)[C@@H](O)[C@@H](O)[C@@H]1O` [Compound 17], the dissociation constant (Kd) is 5.1 nM.

As for `CC[C@H]1C[C@@H](C(=O)NCCNC(=O)CCOCCOCCC(=O)NCCNC(=O)[C@@H]2C[C@H](CC)[C@@H](O[C@@H]3O[C@@H](C)[C@@H](O)[C@@H](O)[C@@H]3O)[C@H](O[C@@H]3O[C@H](CO)[C@H](O)[C@H](O[C@@H](CC4CCCCC4)C(=O)O)[C@H]3NC(C)=O)C2)C[C@@H](O[C@@H]2O[C@H](CO)[C@H](O)[C@H](O[C@@H](CC3CCCCC3)C(=O)O)[C@H]2NC(C)=O)[C@@H]1O[C@@H]1O[C@@H](C)[C@@H](O)[C@@H](O)[C@@H]1O` [Compound 18], the Kd turned out to be 3.5 nM.

With `CC[C@H]1CC(C(=O)NCCNC(=O)CCC(=O)NCCNC(=O)[C@@H]2C[C@H](CC)[C@@H](O[C@@H]3O[C@@H](C)[C@@H](O)[C@@H](O)[C@@H]3O)[C@H](O[C@@H]3O[C@H](CO)[C@H](O)[C@H](O[C@@H](CC4CCCCC4)C(=O)O)[C@H]3NC(C)=O)C2)C[C@@H](O[C@@H]2O[C@H](CO)[C@H](O)[C@H](O[C@@H](CC3CCCCC3)C(=O)O)[C@H]2NC(C)=O)[C@@H]1O[C@@H]1O[C@@H](C)[C@@H](O)[C@@H](O)[C@@H]1O` (stereo partly drawn) [Compound 19], the Kd turned out to be 10.2 nM.

Regarding `CC[C@H]1C[C@@H](C(=O)NCCNC(=O)CCOCCOCCOCCOCCOCCOCCOCCOCCOCCOCCC(=O)NCCNC(=O)[C@@H]2C[C@H](CC)[C@@H](O[C@@H]3O[C@@H](C)[C@@H](O)[C@@H](O)[C@@H]3O)[C@H](O[C@@H]3O[C@H](CO)[C@H](O)[C@H](O[C@@H](CC4CCCCC4)C(=O)N4CCC4)[C@H]3NC(C)=O)C2)C[C@@H](O[C@@H]2O[C@H](CO)[C@H](O)[C@H](O[C@@H](CC3CCCCC3)C(=O)N3CCC3)[C@H]2NC(C)=O)[C@@H]1O[C@@H]1O[C@@H](C)[C@@H](O)[C@@H](O)[C@@H]1O` [Compound 20], the Kd stood at 0.8 nM.

`CC[C@H]1C[C@@H](C(=O)NCCNC(=O)CCOCCOCCOCCOCCOCCOCCOCCOCCOCCOCCC(=O)NCCNC(=O)[C@@H]2C[C@H](CC)[C@@H](O[C@@H]3O[C@@H](C)[C@@H](O)[C@@H](O)[C@@H]3O)[C@H](O[C@@H]3O[C@H](CO)[C@H](O)[C@H](O[C@@H](CC4CCCCC4)C(=O)N(C)C)[C@H]3NC(C)=O)C2)C[C@@H](O[C@@H]2O[C@H](CO)[C@H](O)[C@H](O[C@@H](CC3CCCCC3)C(=O)N(C)C)[C@H]2NC(C)=O)[C@@H]1O[C@@H]1O[C@@H](C)[C@@H](O)[C@@H](O)[C@@H]1O` [Compound 21]: the equilibrium dissociation constant (Kd) stood at 18.3 nM.
